Measurements published in US20160228387A1, “SOLUBILIZED FORMULATION OF COQ10 FOR USE IN TREATMENT OF PARKINSON'S DISEASE” (NATIONAL RESEARCH COUNCIL OF CANADA (NRC), priority 2013, published 2016).
Values joined by “and” are separate entries in the source; they are usually repeats but may differ in a detail not shown here. Equal values may be shown once.

Key:
TH-positive neurons = assay: PQ-induced neurodegeneration in rats: stereological count of TH-positive neurons in midbrain sections; assay type: in vivo, Long Evans Hooded rats; conditions: for total number of TH positive neurons: mean ± SD
Protocol: Long Evans Hooded rats were given 5 intraperitoneal injections of PQ at a dose of 10 mg/kg body weight/injection dissolved in phosphate buffered saline (PBS), one injection every five days over a period of 20 days. Control rats received intraperitoneal injections of PBS alone. Brain tissue was examined immediately after the last PQ injection and, subsequently, 4 weeks and 8 weeks later. […] Fresh drinking solutions were provided every second day. At the conclusion of experimental treatments, rats were perfused with Tyrodes buffer containing heparin, the tissues were fixed with 10% formalin, and the brains extracted and stored in the 10% formalin until processing for immunohistochemistry. Animals were sacrificed at different time points for up to 8 weeks post-PQ exposure. Midbrain sections were prepared, immunostained with anti-tyrosine hydroxylase antibody and TH-positive neurons were counted using a stereologer in an unbiased manner.
The Ubisol-Q10 intervention was applied after the completion of PQ injections described above. By this time, neurodegenerative processes in the brain had already begun. […] This treatment began when nearly 18% of SN neurons were already lost (PQ1 group), but the question was whether the remaining vulnerable neurons could be saved. The midbrain sections were immunostained with anti-TH antibodies, and the stained neurons were counted using a stereologer in an unbiased manner.
There was also significant neuroprotection in the rats that received the Ubisol-Q10 supplemented drinking water for eight weeks post injections.

rats exposed to PQ = assay: Horizontal beam-walking test (leg slips) in PQ-treated rats; assay type: in vivo, rat; conditions: PQ alone (PQ3), 1st test phase, p<0.05
Protocol: Deficiency in motor function is a hallmark of PD. Motor skills of the rats treated in Example 2 were assessed using the beam walk test. All rats were assessed for performance on a horizontal beam-walking test for motor skills/motor deficits as measured by leg slips. The aluminium beam was 1.68 metres in length, 2 centimetres in width and 0.75 metres from the ground. A mirror was placed behind the beam, measuring 1.78 metres in length and 0.3 metres in height. Four weeks after the last injection, rats underwent one trial per day for four consecutive days (one training trial and three test trials). Eight weeks after the last injection another three test trials were performed (one trial per day). In the training trial, rats ran down the beam to the holding cage on a flat platform three times, each time with different distances between the holding cage and starting position. The first position was a quarter of the beam length, the second was half, and the last was the entire distance of the beam. […]
Rats received a small slice of apple in the holding cage located on a table at the end of the beam. […] The test trials were recorded using a standard video camera, located 2 metres perpendicular to the beam. The number of hind leg slips made from either leg during each test trial was later noted from viewing the recorded video clips. […]

[1] = Dispersion and stability in water; assay type: physicochemical; conditions: added to water
Description: Based on the chemical structure, a-tocopherol constitutes 35.6% or one-third of the PTS molecule (Borowy-Borowski et al., 2004).

PD patients = conditions: clinical trials in humans; cited from earlier work
[2] = tested on: TH-positive neurons in SNpc; assay: MPTP-induced neurodegeneration in mice: stereological count of TH-positive neurons in SNpc
Protocol: (§1) To induce the dopaminergic neurodegeneration, male C57BL/6 mice were acclimatized to the new environment for 7 days before the start of the experiment. Animals were randomly divided into experimental groups and given 5 daily injections of MPTP (25 mg/kg/injection). Control mice were injected with saline. On days 5, 8, 14, 28, and 45 after the MPTP injections, mice were sacrificed and brain tissue was collected for immunohistochemistry, stereology, and biochemical analyses. Brains were fixed and immunostained with rabbit polyclonal anti-tyrosine hydroxylase antibody (brown) and counterstained with cresyl violet (blue) for anatomic reference. TH-positive cells were counted using an unbiased stereology method and cell survival was plotted as percentage of control.
Mice were acclimatized for 7 days before the start of the experiment and were randomly divided into 3 experimental groups (I-III). Groups I and II were given regular water throughout the duration of the experiment. […] Groups II and III received 5 daily intraperitoneal injections of MPTP (25 mg/kg/injection) whereas, group I was injected with saline. At the conclusion of the experiment on D28, all animals were sacrificed and brain tissue was collected for immunohistochemistry, sterology, and Western blot.
Mice were acclimatized to the new environment for 7 days before the start of the experiment and were randomly divided into 3 experimental groups (I-III). Control group I was injected with saline and groups II and III received 5 daily MPTP injections (25 mg/kg/injection). […] The supplementation continued until the conclusion of the experiment on D28.
At the conclusion of the experiment on day 28 (D28), all mice were sacrificed and brains were collected for immunohistochemistry and stereology. Brains were fixed and immunostained with rabbit polyclonal anti-tyrosine hydroxylase antibody (brown) and counterstained with cresyl violet (blue) for anatomic reference. Images were captured on an Olympus microscope equipped with Microcast 3CCD 1080p HD color camera system.
(§2) Mice were acclimatized for 7 days before the start of the experiment and were randomly divided into 4 experimental groups (I-IV). Control group I was injected with saline and groups II-IV with MPTP (5×25 mg/kg). Mice in groups I and II were drinking regular water throughout the duration of the experiment. […] At the conclusion of the experiment (D28), all mice were sacrificed and brains were collected for immunohistochemistry, stereology, and biochemistry. Brains were fixed and immunostained with rabbit polyclonal anti-tyrosine hydroxylase antibody and counterstained with cresyl violet. Images were captured on an Olympus microscope equipped with Microcast 3CCD 1080p HD color camera.
Mice were acclimatized to the new environment and were randomly divided into 4 experimental groups (I, II, V, and VI).

striatal dopamine = assay: Striatal dopamine content in MPTP-treated mice
Protocol: as §1, §2

MPTP-treated mice = assay: Beam walk test (faults) in MPTP-treated mice; conditions: MPTP alone (group II), D10
Protocol: As an additional step, the beam walk test, described above, was used to assess motor skills. The handling and training of mice on the test apparatus were performed before the MPTP injections. Mice were acclimatized to the new environment for 7 days (D[-21]-D[-14]) before the handling (D[-14]-D[-7]) and training (D[-7]-D1). Animals were randomly divided into 3 experimental groups (I-III). […] Animals were allowed to cross a 5-mm square and a 100-cm long beam and the number of faults, as well as the time taken to walk the beam, were recorded.

[3] = vitamin E alone; cited from earlier work

With `C[n+]1ccc(-c2cc[n+](C)cc2)cc1` [PQ, paraquat] the “total number of TH positive neurons” value (TH-positive neurons; PQ alone (5 x 10 mg/kg i.p.), 0 weeks after last PQ injection (PQ1)) was 8722 ± 3559, the “loss of DA (TH-positive) neurons versus control” value (TH-positive neurons; PQ alone, during the PQ injection period (PQ1)) was ~18% and ~15% and the “total number of TH positive neurons” value (TH-positive neurons; PQ alone, regular water, 4 weeks after PQ injections (PQ2)) was 6006 ± 1928 and 6227 ± 1682. The “total number of TH positive neurons” value (TH-positive neurons; PQ alone, regular water, 8 weeks after PQ injections (PQ3)) was 5114 ± 1562 and 4661 ± 1097 and the “number of leg slips versus the other three groups” value (rats exposed to PQ) was “significantly greater”.

For `COC1=C(OC)C(=O)C(CC=C(C)CCC=C(C)CCC=C(C)CCC=C(C)CCC=C(C)CCC=C(C)CCC=C(C)CCC=C(C)CCC=C(C)CCC=C(C)C)=C(C)C1=O` [CoQ10, 2,3-dimethoxy, 5-methyl, 6-polyisoprene para-benzoquinone], the behaviour in water [1] is given as “floats on the surface as insoluble material” and the “clinical benefit against PD” value (PD patients) is given as “no clinical benefit”.

In the case of `CN1CC=C(c2ccccc2)CC1` [MPTP, 1-methyl-4-phenyl-1,2,3,6-tetrahydropyridine], the “loss of TH-positive neurons” value ([2]; MPTP alone (5 x 25 mg/kg i.p.), day 28) is reported as 51.6% and 50%, the “number of tyrosine hydroxylase-positive neurons, mean” value ([2]; MPTP alone (Table 9; control = 100)) is reported as 66 and the “surviving TH neurons (percentage of control)” value ([2]; MPTP alone, D28 (Table 5)) is reported as 50.3 ± 7.3%. For the same compound, the “survival of TH-positive neurons” value ([2]; MPTP alone, day 45) was 50%, the “number of TH-positive neurons in SNpc” value ([2]; MPTP alone, regular water, D28 (Table 6)) was 3281 ± 291 and 3320 ± 700 and the “number of TH positive neurons in SNpc” value ([2]; MPTP alone, regular water, D56) was 4192 ± 295. The “striatal dopamine level reduced to” value (striatal dopamine; MPTP alone (group II), by D28) was 50%, the striatal dopamine level (striatal dopamine; MPTP alone, D28 (Table 7)) was 15.1 ± 2.2 and the “decrease of striatal dopamine content” value (striatal dopamine; MPTP alone, by day 28) was about 50%. The “number of faults on beam walk, average” value (MPTP-treated mice) was about 7 faults.

With “polyoxyethanyl-cholesteryl sebacate [PCS]” the “number of tyrosine hydroxylase-positive neurons, mean” value ([2]; in drinking water from 2 weeks before to 3 weeks after MPTP injections (Table 9; control = 100)) was 58.

In the case of `Cc1c(C)c2c(c(C)c1O)CC[C@@](C)(CCC[C@H](C)CCC[C@H](C)CCCC(C)C)O2` [vitamin E, α-tocopherol], the effect on neuroprotection [3] is given as “did not have a significant effect”.
